# Results: patent US4965270A, “Purine derivatives” (Beecham Group p.l.c., priority 1989, dated 1990)
# Assays:
# Format in all cases: cell-based
# [1] = test system: visna virus (strain K184); assay: CPE inhibition test (established monolayer), visna virus; details: Visna-maedi virus; K184 strain in SCP cells; minimum concentration giving complete protection of the cell monolayers
# Method: 4. CPE Inhibition Test (Established Monolayer) for Lentiviruses
# 3×10^4 sheep choroid plexus (SCP) cells were plated into individual wells of a 96 well microtitre plate in 100 μl of Eagle's MEM with Hanks salts containing 10% heat inactivated foetal calf serum (FCS). When monolayers had become established (after 1 or 2 days growth) they were washed with 200 μl of maintenance medium (Eagle's MEM with Hanks salts containing 0.5% FCS) and infected with 100μl of visna virus (strain K184) in maintenance medium (30 TCID50/ ml). Test samples were diluted with maintenance medium in further 96 well microtitre plates over the range 200-0.09 μg/ml by 3-fold dilution steps. 100 μl of the diluted samples was then transferred directly onto virus-infected monolayers (final concentration range therefore 100-0.045 μg/ml) and incubated at 37° C. in a humidified, 5% CO2 incubation until virus-induced CPE was maximal in the untreated virus-infected controls (usually 12-14 days). The plates were fixed with formal saline and stained with crystal violet.
# Virus-induced CPE was then scored microscopically and the minimum concentration of sample giving complete protection of the cell monolayers (MIC) determined.
# [2] = test system: herpes simplex virus 2 (HSV-2; strain MS); assay: Plaque reduction test, herpes simplex virus 2 (strain MS); details: Human alphaherpesvirus 2, MRC5, MS strain in MRC-5 cells; each figure is a single test; read-out: IC50, Herpes Simplex Type 2 virus
# Method: Plaque Reduction Test for Heroes Simplex viruses 1 and 2. Cells (vero or MRC-5) were grown to confluence in 24 well multi-dishes (well diameter 1.5 cm). The drained cell monolayers were each infected with approximately 50 infectious particles of herpes simplex virus 1 (HSV-1; strain HFEM) or herpes simplex virus 2 (HSV-2; strain MS) in 100 μof phosphate-bufferedsaline. The virus was adsorbed for 1 hour at room temperature. After adsorption, residual inoculum was removed from each well and replaced with 0.5ml of Eagle's MEM containing 5% newborn calf serum and 0.9% agarose (A37). Once the agarose had set, dilutions of the test compound, which had been prepared in Eagle's MEM (containing 5% newborn calf serum), were added, each well receiving 0.5ml of liquid overlay. The test compound was diluted to give the following series of […] concentrations: 200, 60, 20, 6 . . . 0.06 μg/ml; final concentrations in the assay ranged, therefore, between 100 μg/ml and 0.03 μg/ml. […]
# Cultures from 1 and 2 were fixed in formal saline, the agarose overlays were carefully washed off, and then the cell monolayers were stained with carbol fuchsin. […] In addition, the monolayers were examined for evidence of drug-induced cytotoxicity; the minimum concentration at which cytotoxicity occurs was recorded.
# [3] = test system: herpes simplex virus 1, strain SC16; assay: CPE inhibition test (replicating cells), herpes simplex virus 1 (strain SC16); details: Human alphaherpesvirus 1, SC16, MRC5, SC16 strain in MRC-5 cells; each figure is a single test; read-out: IC50, Herpes Simplex Type 1 virus
# Source text: 3. CPE Inhibition Test (Replicating Cells) for Herpes Simplex Virus 1 MRC-5 cells (in Eagles MEM containing 5% newborn calf serum) were infected in suspension with herpes simplex virus 1, strain SC16 (approximately one infectious particle per 10 cells). One hundred microliters of the infected cell suspension (containing approximately 2× 10^4 cells) were dispensed into each well of a 96 well microtitre plate containing an equal volume of the test drug in medium (Eagles MEM containing 5% newborn calf serum) at concentrations ranging from 200 to 0.09 μg/ml (3-fold dilution steps); final concentrations therefore ranged between 100 to 0.045 μg/ml. The plates were then incubated at 37° C. in a humidified atmosphere of 5% CO2 for 3 days when the virus-induced cytopathic effect (CPE) in the control wells reached 100%. The plates were fixed in formal saline and stained with carbol fuchsin. […] Plates of uninfected cells were set up in parallel to determine the minimum concentration of test compound which caused cytotoxicity.
MIC [1] [µg/mL],SMILES,IC50 [2] [µg/mL],IC50 [3] [µg/mL]
30,"Nc1nc2c(ncn2OC(CO)CCO)c(=O)[nH]1 (stereo not shown) [Example 8, 9-(1,4-Dihydroxybut-2-oxy)guanine]",,
10,"Nc1nc2c(ncn2OC[C@@H](O)CO)c(=O)[nH]1 [Example 31, (S)-9-(2,3-Dihydroxyprop-1-oxy)guanine]",0.06,0.7

# The next lines start with the compound.
SMILES,MIC [1] [µg/mL],IC50 [2] [µg/mL],IC50 [3] [µg/mL]
"Nc1nc2c(ncn2OCCCO)c(=O)[nH]1 [Example 1, 9-(3-Hydroxyprop-1-oxy)guanine]",3,,
"Nc1nc2c(ncn2OCC(CO)CO)c(=O)[nH]1 [Example 5, 9-(3-Hydroxy-2-hydroxymethylprop-1-oxy)guanine]",0.1,,
"Nc1nc2c(ncn2OCC(O)CO)c(=O)[nH]1 (stereo not shown) [Example 6, 9-(2,3-Dihydroxyprop-1-oxy)guanine]",10,,
